In article PMC4170816 (Journal of Chemical Information and Modeling, 2014):
pKi: −log10 of the molar value. Where two headings read alike, the source gives them in different places.

Legend:
CB2-WT = CB2-WT (Homo sapiens, UniProt P34972); test: [3H]CP55940 binding to CB2-WT in buffer supplemented with NaCl; conditions: NaCl up to 1000 mM; CB2-WT transiently expressed on CHO cell membrane
CB1 = conditions: read-out: Ki to the CB1 receptor; cited from earlier work
A2AAR = conditions: sodium 150 mM; cited from earlier work
wild-type CB2 (WT) = wild-type CB2 (WT) (Homo sapiens, UniProt P34972); test: Competition binding assay, displacement of [3H]-CP-55940, membranes of CHO cells
Sequence of wild-type CB2 (WT) (P34972 whole entry): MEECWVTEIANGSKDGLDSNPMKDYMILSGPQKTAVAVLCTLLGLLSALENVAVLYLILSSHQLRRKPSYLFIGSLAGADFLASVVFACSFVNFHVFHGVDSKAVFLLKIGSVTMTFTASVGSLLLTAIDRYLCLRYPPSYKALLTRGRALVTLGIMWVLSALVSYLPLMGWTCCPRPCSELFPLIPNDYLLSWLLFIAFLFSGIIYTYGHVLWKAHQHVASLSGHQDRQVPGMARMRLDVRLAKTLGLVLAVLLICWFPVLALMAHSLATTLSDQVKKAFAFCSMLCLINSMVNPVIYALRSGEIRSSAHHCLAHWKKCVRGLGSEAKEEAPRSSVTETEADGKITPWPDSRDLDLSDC

δ-opioid receptor = conditions: cited from earlier work

Sequence of CB2-WT (P34972 whole entry): as above

**Q.** For `[Cl-].[Na+]` [Na^+, NaCl], which “effect on the binding of the CB2 agonist [3H]CP55940” value (CB2-WT) is on record?
**A.** did not have any effect

**Q.** With `Cc1ccc(Cn2nc(C(=O)N[C@@H]3C(C)(C)[C@@H]4CC[C@@]3(C)C4)cc2-c2ccc(Cl)c(C)c2)cc1` [SR144528, 5-(4-chloro-3-methylphenyl)-1-[(4-methylphenyl)methyl]-N-[(1S,2S,4R)-1,3,3-trimethylbicyclo[2.2.1]hept-2-yl]-1H-pyrazole-3-carboxamide] as the molecule, how does the pKi (CB1) read?
**A.** 6.40

**Q.** Which “binding detected in presence of sodium” value (A2AAR) does the source give for `CCNC(=O)[C@H]1O[C@@H](n2cnc3c(N)ncnc32)[C@H](O)[C@@H]1O` [[^3H]NECA, 5′-N-ethylcarboxamidoadenosine] here?
**A.** 25%

**Q.** Which results are given for `N=C(N)NC(=O)c1nc(Cl)c(N)nc1N` [amiloride]?
**A.** pKi (wild-type CB2 (WT); Ki value at CB2, competition binding, no added NaCl): 3.31; pKi (wild-type CB2 (WT); Ki value at CB2 with 150 mM NaCl, with 150 mM NaCl): 3.51

**Q.** With “[D-Ala^2, D-Leu^5]-Enkephalin [[^3H]DADLE]” as the molecule, how does the pKi (δ-opioid receptor; read-out: Ki value with 0 mM NaCl, 0 mM NaCl) read?
**A.** 6.55

**Q.** And the pKi (δ-opioid receptor; read-out: Ki value with 140 mM NaCl, 140 mM NaCl)?
**A.** 5.55
